Assays:
[1] = system: KDM2B-bound genes of the established Mia Paca-2 cancer cell line; test: Mia Paca-2 pancreatic cell line expression assay for KDM2B-related genes (real-time PCR); assay type: cell-based; conditions: Homo sapiens; Table 4; Mia Paca-2 cells; read-out: Cellular IC50
Excerpt: Gene expression assay to assess the ability of KDM2B small molecule inhibitors to activate the expression of KDM2B-bound genes of the established Mia Paca-2 cancer cell line.
This gene expression assay is a real-time PCR assay which quantifies the amount of messenger RNA from genes that are normally repressed by KDM2B interacting with EZH2 compared with a control GAPDH gene whose expression is not regulated by KDM2B. The amount of gene expression is correlated to the amount of small molecule inhibition of KDM2B's enzymatic activity.
The established cancer cell line Mia Paca-2 was purchased from American Type Culture Collection (ATCC) and routinely passaged according to ATCC published protocols. Cells were seeded at a density of 40,000 per 96-well. 24 hours after plating, cells received final concentrations of 20nM, 40nM, 80nM and 320nM of test compound. […] At the end of each of the compound incubation period, media was removed and cells were trypsinized according to the ATCC published protocol. mRNA was then harvested from the cell samples using a RNeasy kit (Qiagen). mRNA was quantified and qualified using a Nanodrop machine (Thermo Scientific). mRNA was converted to cDNA using the High-Capacity cDNA Reverse Transcription Kit (Applied Biosystems). […] Data was analyzed using the delta-delta Ct method to calculate fold enrichment over DMSO sample gene expression.

FBXL10 = molecular target: T1, FBXL10 (Homo sapiens, UniProt Q8NHM5); test: FBXL10 in vitro enzyme inhibition assay (AlphaScreen); assay type: biochemical; conditions: Table 3; 0.3 nM FBXL10, H3K36me2-biotin labeled peptide
T1 construct: purchased BPS Bioscience 50120
T1 sequence (Q8NHM5 1-650): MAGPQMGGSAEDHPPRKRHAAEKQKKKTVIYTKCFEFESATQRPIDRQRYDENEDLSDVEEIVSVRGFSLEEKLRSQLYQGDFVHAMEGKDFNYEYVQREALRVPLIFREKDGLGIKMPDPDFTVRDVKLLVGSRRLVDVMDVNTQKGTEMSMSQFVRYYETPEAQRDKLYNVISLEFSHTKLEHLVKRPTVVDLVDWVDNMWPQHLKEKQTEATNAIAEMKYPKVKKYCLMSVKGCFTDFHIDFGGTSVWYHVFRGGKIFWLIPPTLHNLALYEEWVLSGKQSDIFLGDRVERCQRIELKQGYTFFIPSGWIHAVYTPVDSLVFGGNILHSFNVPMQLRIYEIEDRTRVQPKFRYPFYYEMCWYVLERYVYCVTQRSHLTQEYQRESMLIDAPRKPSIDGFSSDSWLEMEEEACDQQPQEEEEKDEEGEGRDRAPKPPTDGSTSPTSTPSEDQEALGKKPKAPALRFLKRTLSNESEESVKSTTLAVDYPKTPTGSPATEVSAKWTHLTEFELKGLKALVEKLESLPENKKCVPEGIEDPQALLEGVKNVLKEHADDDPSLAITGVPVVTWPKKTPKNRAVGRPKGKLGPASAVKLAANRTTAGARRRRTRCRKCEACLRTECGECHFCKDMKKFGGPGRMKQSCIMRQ
Excerpt: (§1) This assay determines the ability of a test compound to inhibit FBXL11, FBXL10, and PHF8 demethylase activity. Baculovirus expressed FBXL11 (GenBank Accession #NM_012308, AA1-1162) was purchased from BPS Bioscience (Cat#50102). Baculovirus expressed FBXL10 (GenBank Accession #NM_032590, AA 1-650) was purchased from BPS Bioscience (Cat #50120). Baculovirus expressed PHF8 (GenBank Accession NP_055922.1) was purchased from Active Motif (Cat#31435).
The ability of test compounds to inhibit the activity of FBXL10 was determined in 384-well plate format under the following reaction conditions: 0.3 nM FBXL10, 30 nM H3K36me2-biotin labeled peptide (Anaspec cat # 64442), 0.2 µM alpha-ketoglutaric acid in assay buffer of 50 mM HEPES, pH7.3, 0.005% Brij35, 0.5 mM TCEP, 0.2 mg/ml BSA, 50 µM sodium L-ascorbate, 5 µM ammonium iron(II) sulfate. Reaction product is determined quantitatively by AlphaScreen detection after the addition of detection reagents anti-H3K36me1 antibody, AlphaScreen® Streptavidin-coated Donor beads, and AlphaScreen® Protein A Acceptor beads in 50 mM HEPES, pH7.3, 10 mM NaCl, 0.005% Brij35, 5 mM EDTA, 2 mg/ml BSA to final 10 µg/ml beads.
The assay reaction was initiated by the following: 3 µl of the mixture of 90 nM H3K36me2-biotin labeled peptide and 0.6 µM alpha-ketoglutaric acid with 3 µl of 11-point serial diluted inhibitor in 3% DMSO are added to each well of 384 well Proxiplate (Perkin Elmer), followed by the addition of 3 µl of 0.9 nM FBXL10 to initiate the reaction. The reaction mixture is incubated at room temperature for 1 hour, and terminated by the addition of 3 µl of appropriate dilution of anti H3K36me1 antibody in 50 mM HEPES, pH7.3, 10 mM NaCl, 0.005% Brij35, 5 mM EDTA, 2 mg/ml BSA. Plates will then incubated at room temperature for 40 minutes, followed by addition of 3 µl of 50 µg/ml AlphaScreen® Streptavidin-coated Donor beads and AlphaScreen® Protein A Acceptor beads in 50 mM HEPES, pH7.3, 10 mM NaCl, 0.005% Brij35, 5 mM EDTA, 2 mg/ml BSA. Plates will then be read by EnVision Multilabel Reader in AlphaScreen mode after minimum 2 hour incubation at room temperature. The AlphaScreen signal for each well is used to determine inhibition constant (IC50).

PHF8 = molecular target: T2, PHF8 (Homo sapiens, UniProt Q9UPP1); test: PHF8 in vitro enzyme inhibition assay (TR-FRET); assay type: biochemical; conditions: Table 3; 3 nM PHF8, H3K9me1-biotin labeled peptide
T2 construct: purchased Active Motif 31435
T2 sequence (Q9UPP1 37-1060): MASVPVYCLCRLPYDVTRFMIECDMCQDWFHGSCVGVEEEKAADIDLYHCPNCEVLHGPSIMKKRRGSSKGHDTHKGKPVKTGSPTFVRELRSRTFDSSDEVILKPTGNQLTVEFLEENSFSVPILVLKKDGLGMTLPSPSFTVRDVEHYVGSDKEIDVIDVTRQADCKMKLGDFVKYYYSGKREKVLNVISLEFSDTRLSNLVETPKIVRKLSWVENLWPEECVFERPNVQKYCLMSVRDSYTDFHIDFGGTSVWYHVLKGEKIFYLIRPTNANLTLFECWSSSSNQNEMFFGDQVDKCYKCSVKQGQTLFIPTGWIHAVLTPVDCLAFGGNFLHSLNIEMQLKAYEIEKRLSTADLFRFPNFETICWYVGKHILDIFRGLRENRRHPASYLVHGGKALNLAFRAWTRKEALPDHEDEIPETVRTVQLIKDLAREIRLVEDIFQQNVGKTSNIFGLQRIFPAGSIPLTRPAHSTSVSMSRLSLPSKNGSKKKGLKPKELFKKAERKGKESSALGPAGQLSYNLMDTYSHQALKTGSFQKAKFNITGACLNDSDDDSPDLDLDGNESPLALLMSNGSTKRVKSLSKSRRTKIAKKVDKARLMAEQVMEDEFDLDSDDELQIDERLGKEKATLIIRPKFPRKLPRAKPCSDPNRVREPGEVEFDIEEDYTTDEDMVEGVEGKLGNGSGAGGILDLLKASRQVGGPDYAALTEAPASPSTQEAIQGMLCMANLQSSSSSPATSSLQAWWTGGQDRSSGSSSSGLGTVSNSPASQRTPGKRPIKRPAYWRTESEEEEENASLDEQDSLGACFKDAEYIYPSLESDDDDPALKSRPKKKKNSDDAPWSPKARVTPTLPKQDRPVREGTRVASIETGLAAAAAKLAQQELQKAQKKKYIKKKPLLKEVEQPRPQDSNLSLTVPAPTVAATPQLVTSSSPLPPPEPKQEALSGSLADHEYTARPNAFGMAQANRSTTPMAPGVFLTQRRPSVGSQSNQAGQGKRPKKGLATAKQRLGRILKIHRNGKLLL
Excerpt: as §1
The ability of test compounds to inhibit the activity of PHF8 was determined in 384-well plate format under the following reaction conditions: 3 nM PHF8, 200 nM H3K9me1-biotin labeled peptide (Anaspec cat #64358), 0.5 µM alpha-ketoglutaric acid in assay buffer of 50 mM HEPES, pH7.3, 0.005% Brij35, 0.5 mM TCEP, 0.2 mg/ml BSA, 50 µM sodium L-ascorbate, and 5 µM ammonium iron(II) sulfate. Reaction product was determined quantitatively by TR-FRET after the addition of detection reagent Phycolink Streptavidin-allophycocyanin (Prozyme) and Europium-anti-unmodified-histone H3 lysine 9/lysine27 (H3K9/K27) antibody (PerkinElmer) in the presence of 5 mM EDTA in LANCE detection buffer (PerkinElmer) at a final concentration of 25 nM and 0.5 nM, respectively.
The assay reaction was initiated by the following: 2 µl of the mixture of 600 nM H3K9me1-biotin labeled peptide and 1.5 µM alpha-ketoglutaric acid with 2 µl of 11-point serial diluted inhibitor in 3% DMSO were added to each well of the plate, followed by the addition of 2 µl of 9 nM PHF8 to initiate the reaction. The reaction mixture was incubated at room temperature for 15 minutes, and terminated by the addition of 6 µl of 5 mM EDTA in LANCE detection buffer containing 50 nM Phycolink Streptavidin-allophycocyanin and 1 nM Europium-anti-unmodified H3K9/K27 antibody. Plates were read by EnVision Multilabel Reader in TR-FRET mode (excitation at 320 nm, emission at 615 nm and 665 nm) after 1 hour incubation at room temperature. A ratio was calculated (665/615) for each well and fitted to determine inhibition constant (IC50).

| Structure (SMILES) | IC50 [1] [µM] | IC50 (FBXL10) [µM] | IC50 (PHF8) [µM] |
| --- | --- | --- | --- |
| FC(F)(F)c1[nH]nnc1-c1ccnc(-c2cn(CCc3cccc4ccccc34)cn2)c1 [Example 37, 2-[1-(2-naphthalen-1-ylethyl)imidazol-4-yl]-4-[5-(trifluoromethyl)-1H-triazol-4-yl]pyridine] | 0.1 to 1 |  |  |
| Cn1cnc(-c2cc3[nH]nnc3cn2)c1-c1ccc(F)cc1 [Example 53, 5-(4-fluorophenyl)-1-methyl-4-{1H-[1,2,3]triazolo[4,5-c]pyridin-6-yl}-1H-imidazole] |  | 0.1 to 1 | 1 to 10 |
| CC(Cc1ccccc1)n1cnc(-c2cc(-c3c[nH]nn3)ccn2)c1 (stereo not drawn) [Example 33, 2-[1-(1-phenylpropan-2-yl)imidazol-4-yl]-4-(1H-triazol-4-yl)pyridine] |  | 0.1 to 1 |  |
| Cn1cnc(-c2cc(-c3nn[nH]c3F)ccn2)c1-c1ccc(F)cc1OCC1CC1 [Example 41, 2-[5-[2-(cyclopropylmethoxy)-4-fluorophenyl]-1-methylimidazol-4-yl]-4-(5-fluoro-1H-triazol-4-yl)pyridine] | 1 to 10 |  |  |
| Clc1cc(Cl)cc(-n2cnc(-c3cc4[nH]nnc4cn3)c2)c1 [Example 52, 1-(3,5-dichlorophenyl)-4-{1H-[1,2,3]triazolo[4,5-c]pyridin-6-yl}-1H-imidazole] |  | 0.1 to 1 | 1 to 10 |
| Clc1ccccc1Cn1cnc(-c2cc(-c3cn[nH]n3)ccn2)c1Br [Example 55, 2-(5-bromo-1-(2-chlorobenzyl)-1H-imidazol-4-yl)-4-(2H-1,2,3-triazol-4-yl)pyridine] |  | ≤ 0.1 | 0.1 to 1 |
| FC(F)(F)Oc1ccccc1CCn1cnc(-c2cc(-c3c[nH]nn3)ccn2)c1 [Example 34] |  | ≤ 0.1 | 0.1 to 1 |
| c1nc(-c2cn(CC3CC3)cn2)cc2[nH]nnc12 [Example 42, 1-(cyclopropylmethyl)-4-{1H-[1,2,3]triazolo[4,5-c]pyridin-6-yl}-1H-imidazole] |  | ≤ 0.1 | 1 to 10 |
| Fc1c(Cn2cnc(-c3cc(-c4c[nH]nn4)ccn3)c2)cccc1OC(F)(F)F [Example 26, 2-[1-[[2-fluoro-3-(trifluoromethoxy)phenyl]methyl]imidazol-4-yl]-4-(1H-triazol-4-yl)pyridine] |  | 0.1 to 1 |  |
| c1ccc(-c2ccccc2CCn2cnc(-c3cc(-c4c[nH]nn4)ccn3)c2)cc1 [Example 27, 2-[1-[2-(2-phenylphenyl)ethyl]imidazol-4-yl]-4-(1H-triazol-4-yl)pyridine] |  | 0.1 to 1 |  |

— patent EP3436445B1, “HISTONE DEMETHYLASE INHIBITORS” (Celgene Quanticel Research, Inc., priority 2016, dated 2017)
